Assay results as given in patent US8765198B2, “Anti-stretch mark active agent, and compositions containing same” (Laboratoires Expanscience, priority 2008, dated 2014).

What was measured:
Type in all cases: cell-based
collagen type III gene = assay: Gene expression of collagen III in normal fibroblasts by quantitative real-time PCR; conditions: 48 hours of treatment, 0.2% dry matter arabinogalactan or 5 ng/ml TGF-β1
Description: (§1) The quantitative real-time polymerase chain reaction (qRT-PCR) is a method that makes it possible to measure in a specific and quantitative way the expression of genes of interest by amplification. Quantification is based on the real-time monitoring of gene amplification using SYBR Green as a reporter system. SYBR Green is a molecule with fluorescent properties which is intercalated in double-stranded DNA. […]
(§2) The quantities of DNA are compared in the exponential part, the time during which the increase in the quantity of DNA is proportional to the initial quantity of the matrix. […]
(§3) At the end of the treatment of the cells, total RNA was extracted (RNeasy MiniKit) and then assayed quantitatively in chips using the Experion system (Experion RNA StdSens kit). […]
(§4) Expression of the genes of reference is analyzed in the same samples as those for which the expression of the genes of interest is evaluated in order to normalize the results.
(§5) Variation in the number of copies of the gene of interest during the treatment is then calculated according to the following formula: ΔΔCt=ΔCtcontrol−ΔCttreatment
(§6) Finally, the relative quantity or level of expression of the genes of interest normalized by the level of expression of the reference genes in the untreated and treated samples is obtained by the formula RQ=2^ΔΔCt.
(§7) The significance of the results was evaluated by a Student's t-test: *p<0.05, **p<0.01.

[1] = tested on: gene coding for collagen type I; assay: Gene expression of collagen I in normal fibroblasts by quantitative real-time PCR; conditions: 48-hour treatment, normalized to GAPDH, 0.2% arabinogalactan or 5 ng/ml TGF-β1
Description: as §1, §2, §3, §4, §5, §6, §7

IL-1β = assay: Anti-inflammatory potential: IL-1β ELISA in keratinocytes stimulated with PMA
Method: Keratinocytes were inoculated in KGM2 medium. After 24 hours of incubation, the cells were pre-treated with 0.2% (dry matter) arabinogalactan for 24 hours. Next, the cells were stimulated by adding 10 μg/ml PMA (phorbol-12-myristate-13-acetate; Sigma) for 16 hours, in order to mimic inflammation.
At the end of the treatment, the cell supernatants were collected and IL-1β was assayed using ELISA kits (R&D Systems).
On the cell layers, a neutral red assay was carried out: optical density, proportional to the quantity of living cells, is read at 540 nm.
The quantity of IL-1β is expressed by living cells according to the formula: OD ELISA IL-1β/OD540.
as §7

collagen I gene = assay: Preventive effect on collagen I gene expression in fibroblasts treated with hydrocortisone (hormonal environment)
Description: as §1, §2, §3, §4, §5, §6, §7

[2] = tested on: normal human keratinocytes; assay: Prerequisite cutaneous tolerance: pro-inflammatory potential, interleukins 1 and 8 and TNF-α assayed in the cell supernatant; conditions: 0.2% dry matter
Method: A. Prerequisite Cutaneous Tolerance • Inflammation: The pro-inflammatory potential of arabinogalactan was evaluated on normal human keratinocytes. Interleukins 1 and 8 as well as TNF-α, early mediators of inflammation, were assayed in the cell supernatant.

fibroblasts = assay: Study of fibroblast proliferation by the MTT method; conditions: 0.2% arabinogalactan, 48 hours of treatment
Method: The MTT [3-(4,5-dimethylthiazol-2-yl)-2,5-diphenyltetrazolium bromide] assay is a colorimetric test which measures cell viability. MTT is a yellow water-soluble tetrazolium salt; metabolically active cells are capable of reducing it into formazan blue crystals.
At D0, the fibroblasts are inoculated in RPMI medium with 1% FCS.
At D1, the cells are treated with RPMI with 10% FCS (positive control) or with 0.2% arabinogalactan for 48 hours.
At the end of the treatment, cell viability is quantified by an MTT assay: after 3 hours of contact with MTT, the formazan crystals formed are solubilized by DMSO and the optical density, proportional to the quantity of metabolically active and thus living cells, is read at 570 nm against the blank (without cells).
as §7

TGF-β: growth factor with a strong capacity to induce molecules of the extracellular matrix; used as a positive control [reference compound]
increase of expression of the collagen type III gene (collagen type III gene): 147% | increase of expression of the gene coding for collagen type I [1]: +223%

CCCCCCCCCCCCCC(=O)O[C@@H]1[C@@H](C)[C@@]2(O)[C@@H](C=C(CO)C[C@]3(O)C(=O)C(C)=C[C@@H]23)[C@@H]2C(C)(C)[C@]12OC(C)=O [PMA, phorbol-12-myristate-13-acetate, reference compound]
salting out of IL-1β under stress (IL-1β; keratinocytes, 10 μg/ml PMA 16 hours): massively salt-out IL-1β

C[C@]12CCC(=O)C=C1CC[C@@H]1[C@@H]2[C@@H](O)C[C@@]2(C)[C@H]1CC[C@]2(O)C(=O)CO [hydrocortisone, reference compound]
inhibition of expression of the collagen I gene (collagen I gene; fibroblasts, 50 μM hydrocortisone, 48 hours of treatment): 57%

arabinogalactan
increase of expression of the collagen type III gene (collagen type III gene): +81% | increase of expression of collagen I in the presence of hydrocortisone (collagen I gene; fibroblasts pretreated 24 hours with 0.2% arabinogalactan, then arabinogalactan + 50 μM hydrocortisone 48 hours): 37% | pro-inflammatory potential [2]: not pro-inflammatory | salting out of interleukins 1 and 8 or TNF-α ([2]; cell supernatant): does not lead to salting out of interleukins 1 and 8 or TNF-α | fibroblast proliferation / cell regeneration (MTT, OD570) (fibroblasts): +20% | inhibition of salting out of IL-1β (OD ELISA/OD540) (IL-1β; keratinocytes pretreated 24 hours with 0.2% dry matter arabinogalactan, then 10 μg/ml PMA 16 hours): −21% | increase of expression of the gene coding for collagen type I [1]: +38%
